{"source": "patent US20090169521A1", "about": "“Vascularized cardiac tissue and methods of producing and using same” (Technion Research & Development Foundation Ltd., priority 2007, published 2009)", "key": {"[1]": {"tested_on": "spontaneously contracting engineered cardiac tissue (gap junctions between hESC-CM)", "test": "Laser confocal Ca2+ imaging (Fluo-4) of impulse propagation", "format": "cell-based, human", "conditions": "1 mM, calcium imaging", "protocol": "Laser scanning confocal Ca-imaging: Scaffolds were loaded with fluo-4 Ca AM (Molecular Probes) indicator to visualize free Ca^+2 levels. To this purpose, 5 mM stock solution of fluo-4 AM in DMSO was, diluted in standard hESC medium, at dilution of 1:1000 giving a final concentration of 5 μM. The non-ionic detergent Pluronic F-127 (Molecular Probes) was used to assist dispersion of the nonpolar fluo-4 AM ester in the aqueous media. Scaffolds were incubated for 45 minutes at 37° C. Following incubation the scaffolds were washed (×3) with indicator-free control tyrode solution removing any dye non-specifically associated with the cell surface. Afterwards the scaffolds were further incubated for 15 minutes allowing complete de-esterification of intracellular AM esters (according to manufacture's instructions). […]\nSince the ultrastructural characterization clearly indicated the presence of gap junctions between adjacent hESC-CM (FIG. 7D), the present inventors sought to determine whether these formed gap junctions mediate impulse conduction between the hESC-CM and therefore allow synchronous contraction. […] The beating frequency of the spontaneously contracting cardiac tissue was evaluated following application of different pharmacological agents. […]"}, "[2]": {"tested_on": "spontaneously contracting engineered cardiac tissue", "test": "Beating frequency of engineered cardiac tissue after chronotropic agents", "format": "cell-based, human", "conditions": "1 μM, n=4; before application 1.6±0.3 Hz (isoproterenol), 1.7±0.2 Hz (carbamylcholine)", "protocol": "Since the ultrastructural characterization clearly indicated the presence of gap junctions between adjacent hESC-CM (FIG. 7D), the present inventors sought to determine whether these formed gap junctions mediate impulse conduction between the hESC-CM and therefore allow synchronous contraction. The gap junction uncoupler, 1-heptanol (1 mM), was applied to the spontaneously contracting engineered cardiac tissue. […] The beating frequency of the spontaneously contracting cardiac tissue was evaluated following application of different pharmacological agents. Appropriate positive and negative chronotropic responses were observed following application of the β-agonist, isoproterenol (1 μM) and the muscarinic agonist—carbamylcholine (1 μM). Thus, isoproterenol increased the beating frequency of the engineered cardiac issue from 1.6±0.3 Hz to 2.1±0.3 Hz (p<0.05, n=4), while carbamylcholine decreased the beating frequency from 1.7±0.2 Hz to 1.4±0.1 Hz (p=0.055, n=4)."}}, "note": "“Also recorded” adds a separate entry of the source."}
{"smiles": "CCCCCCCO", "note": "[1-heptanol]", "values": [{"measurement": "impulse propagation", "setting": "[1]", "value": "complete inhibition; also recorded: completely inhibited"}]}
{"smiles": "C[N+](C)(C)CCOC(N)=O.[Cl-]", "note": "[carbamylcholine]", "values": [{"measurement": "beating frequency after application of the agent", "setting": "[2]", "value": "1.4±0.1", "unit": "Hz"}]}
{"smiles": "CC(C)NCC(O)c1ccc(O)c(O)c1", "note": "(stereo not drawn) [isoproterenol]", "values": [{"measurement": "beating frequency after application of the agent", "setting": "[2]", "value": "2.1±0.3", "unit": "Hz"}]}
